Test results: ChEMBL document CHEMBL1201862, “PubChem BioAssay data set” (2004)
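Briefly, cells in 96-well plates were exposed to five compound concentrations for 48 h, and endpoints were estimated by linear interpolation. Here, GI50 denotes the concentration required for 50% inhibition of growth.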 Calls of active or inactive are those of the source. Rule as the data show it: active = GI50 up to about 1.1 µM and inactive = higher.

Experiments:
Assay in all cases: NCI tumour cell line growth inhibition, 48 h
[1] = system: SK-MEL-5
[2] = system: A498
[3] = system: M19-MEL
[4] = system: NCI-H460
[5] = system: M14
[6] = system: DLD-1
[7] = system: SR
[8] = system: K562
[9] = system: SNB-78
[10] = system: HCT-116
[11] = system: DMS-114
[12] = system: HOP-62
[13] = system: UACC-62
[14] = system: TK-10
[15] = system: NCI-H23
[16] = system: SK-MEL-2
[17] = system: HL-60
[18] = system: OVCAR-3
[19] = system: SN12C
[20] = system: LXFL 529
[21] = system: KM12
[22] = system: DMS-273
[23] = system: UACC-257
[24] = system: CAKI-1
[25] = system: XF498
[26] = system: SK-OV-3
[27] = system: RXF 393
[28] = system: EKVX
[29] = system: COLO 205
[30] = system: OVCAR-8
[31] = system: SF-295
[32] = system: UO-31
[33] = system: HCT-15
[34] = system: SNB-19
[35] = system: MOLT-4
[36] = system: SW-620
[37] = system: HCC 2998
[38] = system: KM-20L2
[39] = system: SNB-75
[40] = system: SK-MEL-28
[41] = system: NCI-H522
[42] = system: OVCAR-4
[43] = system: 786-0
[44] = system: SF-268
[45] = system: LOX IMVI
[46] = system: A549
[47] = system: IGROV-1
[48] = system: CCRF-CEM
[49] = system: ACHN
[50] = system: RPMI-8226
[51] = system: U-251
[52] = system: HOP-18
[53] = system: OVCAR-5
[54] = system: Malme-3M
[55] = system: SF-539
[56] = system: NCI-H226

Question: Which results are given for `CC1(C)CCOC(Sc2ccccc2)C1` (stereo unspecified)?
Answer: GI50 [1]: 15 µM (inactive); GI50 [2]: 67.3 µM (inactive); GI50 [3]: 30.3 µM (inactive); GI50 [4]: 84.9 µM (inactive); GI50 [5]: 53.2 µM (inactive); GI50 [6]: > 100 µM (inactive); GI50 [7]: 39.6 µM (inactive); GI50 [8]: 21.9 µM (inactive); GI50 [9]: > 100 µM (inactive); GI50 [10]: 60.4 µM (inactive); GI50 [11]: 21.3 µM (inactive); GI50 [12]: > 100 µM (inactive); GI50 [13]: 38.5 µM (inactive); GI50 [14]: > 100 µM (inactive); GI50 [15]: 10.8 µM (inactive); GI50 [16]: 30.3 µM (inactive); GI50 [17]: 10.5 µM (inactive); GI50 [18]: 87.1 µM (inactive); GI50 [19]: > 100 µM (inactive); GI50 [20]: > 100 µM (inactive); GI50 [21]: 76.6 µM (inactive); GI50 [22]: 28.2 µM (inactive); GI50 [23]: 35.2 µM (inactive); GI50 [24]: 96.8 µM (inactive); GI50 [25]: > 100 µM (inactive); GI50 [26]: > 100 µM (inactive); GI50 [27]: 32.1 µM (inactive); GI50 [28]: > 100 µM (inactive); GI50 [29]: 52.2 µM (inactive); GI50 [30]: > 100 µM (inactive); GI50 [31]: 66.2 µM (inactive); GI50 [32]: 80.9 µM (inactive); GI50 [33]: 50.6 µM; GI50 [34]: > 100 µM (inactive); GI50 [35]: 23.2 µM (inactive); GI50 [36]: > 100 µM (inactive); GI50 [37]: > 100 µM (inactive); GI50 [38]: 47.4 µM (inactive); GI50 [39]: 53.2 µM (inactive); GI50 [40]: > 100 µM (inactive); GI50 [41]: 18.8 µM (inactive); GI50 [42]: 52.8 µM (inactive); GI50 [43]: > 100 µM (inactive); GI50 [44]: > 100 µM (inactive); GI50 [45]: 91.4 µM (inactive); GI50 [46]: 24.3 µM (inactive); GI50 [47]: > 100 µM (inactive); GI50 [48]: 32.4 µM (inactive); GI50 [49]: 63.7 µM (inactive); GI50 [50]: 18.3 µM (inactive); GI50 [51]: 18.7 µM (inactive)

Question: Which results are given for `CCOC(=O)C(C)(C)Oc1ccc2c(=O)cc(-c3ccccc3)oc2c1`?
Answer: GI50 [1]: 14.8 µM (inactive); GI50 [2]: > 100 µM (inactive); GI50 [3]: 20.7 µM (inactive); GI50 [52]: 22.8 µM (inactive); GI50 [4]: 27.7 µM (inactive); GI50 [5]: 19.5 µM (inactive); GI50 [8]: 13 µM (inactive); GI50 [9]: 26.7 µM (inactive); GI50 [10]: 17.3 µM (inactive); GI50 [11]: 17.9 µM (inactive); GI50 [12]: 18.5 µM (inactive); GI50 [13]: 18.2 µM (inactive); GI50 [53]: > 100 µM (inactive); GI50 [14]: > 100 µM (inactive); GI50 [15]: 18.6 µM (inactive); GI50 [16]: 16.9 µM (inactive); GI50 [17]: 14.1 µM (inactive); GI50 [18]: 19.5 µM (inactive); GI50 [19]: 32.1 µM (inactive); GI50 [20]: 19 µM (inactive); GI50 [21]: 18.9 µM (inactive); GI50 [54]: 22.9 µM (inactive); GI50 [23]: 17.4 µM (inactive); GI50 [26]: > 100 µM (inactive); GI50 [27]: 21.2 µM (inactive); GI50 [28]: 31.9 µM (inactive); GI50 [29]: 19.6 µM (inactive); GI50 [30]: 23 µM (inactive); GI50 [31]: 26.5 µM (inactive); GI50 [32]: 48.6 µM (inactive); GI50 [33]: 20 µM; GI50 [34]: 18.8 µM (inactive); GI50 [55]: 20.2 µM (inactive); GI50 [56]: 22.8 µM (inactive); GI50 [35]: 13.8 µM (inactive); GI50 [36]: 22.8 µM (inactive); GI50 [37]: > 100 µM (inactive); GI50 [38]: 24.2 µM (inactive); GI50 [39]: 19.1 µM (inactive); GI50 [40]: 16.7 µM (inactive); GI50 [41]: 13.9 µM (inactive); GI50 [43]: 16.3 µM (inactive); GI50 [44]: 22.3 µM (inactive); GI50 [45]: 17.5 µM (inactive); GI50 [46]: 23.1 µM (inactive); GI50 [47]: 29.5 µM (inactive); GI50 [48]: 18 µM (inactive); GI50 [49]: 54.7 µM (inactive); GI50 [50]: 14.1 µM (inactive); GI50 [51]: 18.2 µM (inactive)
